This note sets out measurements from patent publication US6326476A, “Heparin derivatives and process for the preparation thereof” (Pharmacia AB, priority 1991, dated 2001).

The test system of this series is Sprague-Dawley rats. Conditions: rat, in vivo, 2 mg/kg.

Experimental: Res 15 191-197 was performed in Sprague-Dawley rats weighing 200-250 g anaesthetized with Mebumal/Stesolid (Dumex A/S Copenhagen). The template device (Simplate, General Diagnostics, Durham, N.C.) was applied longitudinally to the dorsal part of the tail, taking care to avoid large veins. Blood from the wound was then carefully removed every 30 sec, with blotting paper. A minimum of six rats were used for each compound and dose. Bleeding times were measured from the moment the tail was incised until the first arrest of bleeding. The bleeding time was recorded with an accuracy of 30 sec. Two bleeding times were always determined in each rat, viz. 10 min before and 10 min after drug administration, and the results are expressed as the prolongation of bleeding time.

Consider heparin [Standard heparin], for which the “Prolongation of bleeding time” value is reported as 12.8 min.
